Assay results published in US20040191902A1, “Growth and differentiation of stem cells” (Pfizer Inc, priority 2003, published 2004).

Assays:
[1] = test system: CYP3a, CYP2d, CYP2e1 and CYP1a2 in hepatocyte-like cells; test: Conversion of test compounds by hepatocyte-like cells (HPLC and mass spectrometry of supernatants)
Protocol: The presence of CYP proteins in the hepatocyte-like cells was also determined by monitoring the conversion of certain compounds added to the hepatocyte-like cells. Two test compounds (7-ethoxy-coumarin and dextromethorphan) were added to hepatocyte-like cells. The supernatants of the cells were then subjected to high pressure liquid chromatography (HPLC) and mass spectrometry to identify products of the conversion of the test compounds by CYP3a, CYP2d, CYP2e1 and CYP1a2.

hepatocyte-like cells = test: Dibenzylfluorescein (DBF) assay for metabolic activity of hepatocyte-like cells; assay type: in vitro ADME, mouse; conditions: hepatocyte-like cells differentiated in presence or absence of HPO
Protocol: Another test that was used to characterize the hepatocyte-like cells is the dibenzylfluorescein (DBF) assay for metabolic activity. See, for example, Stresser et al., Drug Metab. Disp., 28:1440-48 (2000). These assays were conducted using a DBF compound (Molecular Probes, Eugene Oreg.) according to the manufacturer's recommendations.

4MBr-5 cell line = conditions: 3H-thymidine incorporation, typical range; cited from earlier work
TF-1 cell line = conditions: proliferation of TF-1; typical range; cited from earlier work
Balb/3T3 cell line = conditions: 3H-thymidine incorporation, typical range; cited from earlier work
[2] = test system: cells differentiating from ES cells into hepatocyte-like cells; test: In vitro differentiation of mouse ES cells into hepatocyte-like cells with hepatopoietin added to the media; assay type: cell-based
Protocol: Mouse ES cells were differentiated into hepatocyte-like cells as described above, with the addition of 50 ng/ml mouse hepatopoietin protein to the HepII, HepIII and/or HepIV media. The mouse hepatopoietin protein consisted of a portion of the wild-type protein, which portion has the amino acid sequence set forth in SEQ ID NO: 16.
The presence of hepatopoietin in either medium had this effect, but the strongest effect was seen when it was included in all three media, i.e., during the middle stage, the late stage and the maturation and selection stage. In this case, it appeared that over 90% of the cells in the culture were hepatocyte-like cells.

NIH/3T3 cells = conditions: 3H-thymidine incorporation, quiescent NIH/3T3; typical range; cited from earlier work

With `CCOc1ccc2ccc(=O)oc2c1` [7-ethoxy-coumarin] the “conversion products by CYP3a, CYP2d, CYP2e1 and CYP1a2” value ([1]; hepatocytes) was “expected conversion products were obtained”.

With `O=C(OCc1ccccc1)c1ccccc1-c1c2ccc(=O)cc-2oc2cc(OCc3ccccc3)ccc12` [DBF, dibenzylfluorescein] the “DBF assay for metabolic activity” value (hepatocyte-like cells) was “positive”.

In the case of `COc1ccc2c(c1)[C@]13CCCC[C@@H]1[C@H](C2)N(C)CC3` [dextromethorphan], the “conversion products by CYP3a, CYP2d, CYP2e1 and CYP1a2” value ([1]; added to hepatocyte-like cells, supernatants by HPLC and mass spectrometry) is reported as “expected conversion products were obtained”.

In the case of “human recombinant HGF: human recombinant hepatocyte growth factor”, the ED50 (4MBr-5 cell line) is listed as 20 to 40 ng/mL.

For “human recombinant OSM: human recombinant oncostatin M”, the ED50 (TF-1 cell line) is listed as 0.1 to 3 ng/mL.

For “human recombinant aFGF: human recombinant acidic fibroblast growth factor”, the ED50 (Balb/3T3 cell line) is listed as 2 to 10 ng/mL.

With “mouse HPO: portion of wild-type mouse hepatopoietin, 125 amino acids, SEQ ID NO: 16, produced in E. coli” the “proliferation of cells giving rise to hepatocyte-like cells” value ([2]; 50 ng/ml in HepII, HepIII and/or HepIV media) was “stimulates the proliferation” and the “cells in the culture that were hepatocyte-like cells” value ([2]; 50 ng/ml included in all three media (middle, late, maturation and selection stages)) was “over 90%”.

B1: mouse recombinant OSM: mouse recombinant oncostatin M (protein, UniProt P53347 25-206, looked up)
Oncostatin-M: NRGCSNSSSQLLSQLQNQANLTGNTESLLEPYIRLQNLNTPDLRAACTQHSVAFPSEDTLRQLSKPHFLSTVYTTLDRVLYQLDALRQKFLKTPAFPKLDSARHNILGIRNNVFCMARLLNHSLEIPEPTQTDSGASRSTTTPDVFNTKIGSCGFLWGYHRFMGSVGRVFREWDDGSTRSRR
For B1, the ED50 (NIH/3T3 cells) is given as 2 to 4 ng/mL.
